These results are taken from patent US8703751B2, “Androstenediol as an indicator for assessing estrogenicity” (The Regents of the University of California, priority 2009, dated 2014).

“Also recorded” adds a separate entry of the source.

One data set has as its target T1, estrogen-alpha receptor (Homo sapiens, UniProt P03372).
T1 construct: human ovarian carcinoma cells (BG1) that have been stably transfected with a luciferase reporter gene plasmid; endogenous in cells; host or cells: BG1 human ovarian carcinoma cells stably transfected with an ERE-luciferase reporter plasmid
Briefly: cell-based estrogen receptor bioassay (BG1 cells, luciferase reporter under four estrogen-response elements) for estrogenicity. The conditions noted are these: for inherent estrogenic bioactivity (estrogenicity): at physiological circulating concentrations, FIG. 5 dose-response curves. The source says: The total estrogen receptor ligand load (ERLL) can be determined using any method known in the art. The ERLL provides an estimate of the combined biological potential of the estrogen-alpha receptor ligand load contained in the sample. […] Other cell lines can find use. […] The detectable signal of any reporter gene known in the art can be used, including without limitation luciferase and fluorescent proteins (e.g., green fluorescent protein, yellow fluorescent protein, blue fluorescent protein, red fluorescent protein, etc.). In the case where […] is used as the reporter gene, […] substrate is added to the culture and the luciferase activity induced by the standards and/or test sample are measured using a Luminometer.
This assay assesses the total estrogenic bioactivity contained in a serum sample. Thus and estimate of the combined biological potential of the estrogen-alpha receptor ligand load (ERLL) contained in the sample. Thus the bioactivity of a sample will be appropriately estimated. Briefly, human ovarian carcinoma cells (BG1) that have been stably transfected with a luciferase reporter gene plasmid under the regulation of four estrogen-response elements were used to measure total bioactive estrogens. BG1 cells were cultured in Alpha Minimum Essential Medium (Alpha-MEM) with 10% fetal bovine serum (FBS). When cells reached 80% confluence, cells were trypsinized (0.05% trypsin-EDTA) and well dispersed in phenol-red free Dulbecco's […] (DMEM) supplemented with 10% dextran charcoal treated FBS (DCC-FBS). Suspended cells (0.05 mL/well; density of 25,000 cells/0.05 mL) were added to 96-well tissue culture plates containing 0.15 mL/well of phenol-red free DMEM supplemented with 10% DCC-FBS. On each of the two subsequent days (Days 2 and 3), the media in each well was removed and replaced with 0.2 mL phenol-red free DMEM supplemented with 10% DCC-FBS. […] To compensate for any serum matrix effects, DCC-FBS was added to the E2 standard preparation at a proportion equal to that of the serum content of the sample preparation (5% v/v). Serum samples were diluted in DCC-FBS with a final serum content of 5% (v/v). Plates were then incubated for an additional 18 hours. Media was then removed and 0.1 mL cell lysis buffer added to each well and allowed to incubate for 20 minutes. Cell lysates (0.04 mL) were transferred to 96-well Microfluor II plates (Fisher Scientific, Santa Clara, Calif.). Luciferin substrate was injected into each well and the luciferase activity induced by the standards and/or test serum was measured by a Veritas Luminometer (Turner Biosystems, Sunnyvale, Calif., USA).
The third element for developing the concept was that of gaining additional insight into the innate properties of all of the adrenal steroids that were associated with the rise of DS during the menopausal transition. For these investigations newly developed in vitro bioassays were used to adjudicate the estrogenicity of all for adrenal steroids (i.e., T, A-dione, 5A-diol and DHEA).
In general terms: Reporter assays use an easily measured gene product as a stand-in for the process of interest.

The conditions of data set [1]: 25 mg oral dose for three months; from 0.32 ng/mL before (doubling); cited from earlier work.
The conditions of data set [2]: local, intravaginal suppository; cited from earlier work.
For data set [3] the following is noted: transdermal administration; 60-65 year old women; cited from earlier work.
The conditions of data set [4]: cited from earlier work.
Setting [5] is: oral 50 mg/day for one year, women over 70 years old.

T1 sequence (P03372 whole entry): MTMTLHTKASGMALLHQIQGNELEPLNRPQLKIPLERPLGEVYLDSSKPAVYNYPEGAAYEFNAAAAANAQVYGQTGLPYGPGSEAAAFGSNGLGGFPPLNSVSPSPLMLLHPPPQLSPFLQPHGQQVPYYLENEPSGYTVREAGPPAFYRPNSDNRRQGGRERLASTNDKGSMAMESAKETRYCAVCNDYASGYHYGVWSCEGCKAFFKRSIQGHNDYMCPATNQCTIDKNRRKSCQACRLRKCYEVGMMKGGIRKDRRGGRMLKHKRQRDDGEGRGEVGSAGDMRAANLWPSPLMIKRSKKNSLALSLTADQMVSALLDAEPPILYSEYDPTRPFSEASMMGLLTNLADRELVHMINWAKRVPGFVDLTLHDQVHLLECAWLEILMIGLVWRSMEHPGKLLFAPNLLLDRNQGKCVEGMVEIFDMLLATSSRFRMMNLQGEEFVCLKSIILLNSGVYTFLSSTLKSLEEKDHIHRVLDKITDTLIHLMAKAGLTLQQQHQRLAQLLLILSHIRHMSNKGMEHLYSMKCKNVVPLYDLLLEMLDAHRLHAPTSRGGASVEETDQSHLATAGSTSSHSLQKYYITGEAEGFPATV

Turning to `C[C@]12CC[C@H]3[C@@H](CC=C4C[C@@H](O)CC[C@@]43C)[C@@H]1CC[C@@H]2O` [5A-diol, (3-beta,17-beta)-Androst-5-ene-3,17-diol], on estrogen-alpha receptor, the “estrogenic or not (discussion statement)” value is recorded as “is estrogenic” and the “inherent estrogenic bioactivity (estrogenicity)” value (“inherent estrogenic bioactivity” for short) is on record as “substantial inherent estrogenic bioactivity”. Moreover, at estrogen-alpha receptor (listed as androstenediol), the “inherent estrogenic bioactivity” value is listed as “significant “estrogenicity” at physiological levels”.
As to `C[C@]12CC[C@H]3[C@@H](CCC4=CC(=O)CC[C@@]43C)[C@@H]1CC[C@@H]2O` [T, testosterone], the “inherent estrogenic bioactivity” value at estrogen-alpha receptor was “only 5A-diol and estradiol had substantial inherent estrogenic bioactivity”.
Take `C[C@]12CCC(=O)C=C1CC[C@@H]1[C@@H]2CC[C@]2(C)C(=O)CC[C@@H]12` [A-dione, androstendione]: the “inherent estrogenic bioactivity” value at estrogen-alpha receptor was “only 5A-diol and estradiol had substantial inherent estrogenic bioactivity”.
`C[C@]12CC[C@H](O)CC1=CC[C@@H]1[C@@H]2CC[C@]2(C)C(=O)CC[C@@H]12` [DHEA, dehydroepiandrosterone]: the “circulating concentration of A-diol after treatment” value in data set [1] is listed as 0.66 ng/mL. For the same molecule, at estrogen-alpha receptor, the “estrogenic or not (discussion statement)” value is reported as “not estrogenic”; the “inherent estrogenic bioactivity” value is “only 5A-diol and estradiol had substantial inherent estrogenic bioactivity; also recorded: does not”. In addition, in data set [2], the age-related vaginal atrophy entry is “highly efficient treatment” and the “change in circulating sex steroid concentrations” value is reported as “no significant change”. In data set [3], the “increase in circulating DS” value is listed as “five fold increase”; the “increase in circulating androstendiol glucuronides” value is “less than a two and one-half fold increase”. Besides, the “BMD and bone resorption” value in data set [4] (50 mg daily oral, adults 55-85 years of age, in women but not men) is “only modest effect”. In addition, in data set [4] (50 mg/day oral, one year, men and women between 60 and 80 years of age), the muscle status result is “no positive effect”. In addition, in data set [4] (setting [5]), the bone turnover entry is on record as “modestly decrease”, the libido result is “increase” and the skin hydration result is reported as “improve”.
